Assay results published in patent US12281122B1, “PI3K inhibitors” (Cogent Biosciences, Inc., priority 2023, dated 2025).

Experiments:
[1] = tested on: T47D (PI3Kα-H1047R) cell line; assay: HTRF phospho-AKT(S473) cell assay in T47D cells; format: cell-based, human
How it was run: (§1)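 HTRF read-out of phospho-AKT(S473) in lysates gave IC50 values after 2 h compound exposure at 37° C. Dose series was 12 points at 1:3, topping at 5 μM for T47D and 10 μM for SKBR3. Only SKBR3 received 70 ng/ml PDGF-BB during the last 15 minutes.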

[2] = tested on: SKBR3 (PI3Kα-Wild Type) cell line; assay: HTRF phospho-AKT(S473) cell assay in SKBR3 cells; format: cell-based, human
How it was run: as §1

[3] = Homo sapiens; T47D (PI3Kα-H1047R) cells, HTRF phospho-AKT(S473), 2 hours compound incubation
[4] = Homo sapiens, SK-BR-3; SKBR3 (PI3Kα-Wild Type) cells, HTRF phospho-AKT(S473), 2 hours compound incubation, PDGF-BB stimulated
[5] = Homo sapiens; HTRF phospho-AKT(S473), T47D (PI3Kα-H1047R) cells, 2 hours compound incubation
[6] = Homo sapiens, SK-BR-3; HTRF phospho-AKT(S473), SKBR3 (PI3Kα-Wild Type) cells, 2 hours compound incubation, PDGF-BB stimulated

Row | SMILES | IC50 [1, 3] | IC50 [2, 4] | IC50 [1, 5] | IC50 [2, 6]
1 | Cc1cc([C@@H](C)Nc2ccc(Cl)nc2C(=O)NS(C)(=O)=O)c2nc(-c3ccc(N(C)C)nc3)n(C)c(=O)c2c1 [Compound 349, (R)-6-chloro-3-((1-(2-(6-(dimethylamino)pyridin-3-yl)-3,6-dimethyl-4-oxo-3,4-dihydroquinazolin-8-yl)ethyl)amino)-N-(methylsulfonyl) picolinamide] | < 0.25 µM | 1 to 5 µM | – | –
2 | Cc1cc([C@@H](C)Nc2ccc(Cl)nc2C(=O)NS(C)(=O)=O)c2nc(N3Cc4cn(-c5ccc(C)nc5)nc4C3)n(C)c(=O)c2c1 [Compound 217, (R)-6-chloro-3-((1-(3,6-dimethyl-2-(2-(6-methylpyridin-3-yl)-2,6-dihydropyrrolo[3,4-c]pyrazol-5(4H)-yl)-4-oxo-3,4-dihydroquinazolin-8-yl)ethyl)amino)-N-(methylsulfonyl) picolinamide] | < 0.25 µM | 1 to 5 µM | – | –
3 | Cc1cc([C@@H](C)Nc2ccc(Cl)nc2C(=O)NS(C)(=O)=O)c2nc(-c3ccc(-c4ccn(C)n4)nc3)n(C)c(=O)c2c1 [Compound 243, (R)-6-chloro-3-((1-(3,6-dimethyl-2-(6-(1-methyl-1H-pyrazol-3-yl)pyridin-3-yl)-4-oxo-3,4-dihydroquinazolin-8-yl)ethyl)amino)-N-(methylsulfonyl) picolinamide] | < 0.25 µM | 1 to 5 µM | – | –
4 | Cc1cc([C@@H](C)Nc2ccc(Cl)nc2C(=O)NS(C)(=O)=O)c2nc(N3C[C@@H]4[C@H](C3)[C@H]4c3ccn(C4CC4)n3)n(C)c(=O)c2c1 [Compound 475, 6-chloro-3-(((R)-1-(2-((1R,5S,6R)-6-(1-cyclopropyl-1H-pyrazol-3-yl)-3-azabicyclo[3.1.0]hexan-3-yl)-3,6-dimethyl-4-oxo-3,4-dihydroquinazolin-8-yl)ethyl)amino)-N-(methylsulfonyl) picolinamide] | – | – | 0.25 to 0.5 µM | 1 to 5 µM
5 | Cc1cc([C@@H](C)Nc2ccc(Cl)nc2C(=O)NS(C)(=O)=O)c2nc(N3C[C@@H]4[C@H](C3)[C@H]4c3nn(C)cc3F)n(C3CC3)c(=O)c2c1 [Compound 466, 6-chloro-3-(((R)-1-(3-cyclopropyl-2-((1R,5S,6R)-6-(4-fluoro-1-methyl-1H-pyrazol-3-yl)-3-azabicyclo[3.1.0]hexan-3-yl)-6-methyl-4-oxo-3,4-dihydroquinazolin-8-yl)ethyl)amino)-N-(methylsulfonyl) picolinamide] | – | – | 0.25 to 0.5 µM | ≥ 5 µM
6 | Cc1cc([C@@H](C)Nc2ccc(Cl)nc2C(=O)NS(C)(=O)=O)c2nc(N3CCC[C@@H](Oc4cnc(C)cn4)C3)n(C)c(=O)c2c1 [Compound 376, 6-chloro-3-(((R)-1-(3,6-dimethyl-2-((R)-3-((5-methylpyrazin-2-yl)oxy)piperidin-1-yl)-4-oxo-3,4-dihydroquinazolin-8-yl)ethyl)amino)-N-(methylsulfonyl) picolinamide] | 0.25 to 0.5 µM | ≥ 5 µM | – | –
7 | Cc1cc([C@@H](C)Nc2ccc(Cl)nc2C(=O)NS(C)(=O)=O)c2nc(N3CCC[C@H](c4ccn(C(F)F)n4)C3)n(C)c(=O)c2c1 (relative stereo) [Compound 770, 6-chloro-3-(((R)-1-(2-((R*)-3-(1-(difluoromethyl)-1H-pyrazol-3-yl)piperidin-1-yl)-3,6-dimethyl-4-oxo-3,4-dihydroquinazolin-8-yl)ethyl)amino)-N-(methylsulfonyl) picolinamide] | – | – | 0.25 to 0.5 µM | ≥ 5 µM
8 | Cc1cc([C@@H](C)Nc2ccc(Cl)nc2C(=O)NS(C)(=O)=O)c2nc(N3CCN(c4ncc(F)cn4)CC3)n(C)c(=O)c2c1 [Compound 533, (R)-6-chloro-3-((1-(2-(4-(5-fluoropyrimidin-2-yl)piperazin-1-yl)-3,6-dimethyl-4-oxo-3,4-dihydroquinazolin-8-yl)ethyl)amino)-N-(methylsulfonyl) picolinamide] | – | – | < 0.25 µM | 1 to 5 µM
9 | CCn1c(N2Cc3cnn(CC(F)(F)F)c3C2)nc2c([C@@H](C)Nc3ccc(Cl)nc3C(=O)NS(C)(=O)=O)cc(C)cc2c1=O [Compound 733, (R)-6-chloro-3-((1-(3-ethyl-6-methyl-4-oxo-2-(1-(2,2,2-trifluoroethyl)-4,6-dihydropyrrolo[3,4-c]pyrazol-5(1H)-yl)-3,4-dihydroquinazolin-8-yl)ethyl)amino)-N-(methylsulfonyl) picolinamide] | – | – | 0.5 to 1 µM | 1 to 5 µM
10 | CC(=O)N1CCN(c2ccc(-c3nc4c([C@@H](C)Nc5ccc(Cl)nc5C(=O)NS(C)(=O)=O)cc(C)cc4c(=O)n3C)cn2)CC1 [Compound 175, (R)-3-((1-(2-(6-(4-acetylpiperazin-1-yl)pyridin-3-yl)-3,6-dimethyl-4-oxo-3,4-dihydroquinazolin-8-yl)ethyl)amino)-6-chloro-N-(methylsulfonyl) picolinamide] | < 0.25 µM | 1 to 5 µM | – | –

Next, values leading:

Row | IC50 [1, 3] | IC50 [2, 4] | IC50 [1, 5] | IC50 [2, 6] | SMILES
11 | – | – | 0.25 to 0.5 µM | ≥ 5 µM | Cc1cc([C@@H](C)Nc2ccc(Cl)nc2C(=O)NS(C)(=O)=O)c2nc(N3CCC(c4ncc(C5CC5)cn4)CC3)n(C)c(=O)c2c1 [Compound 509, (R)-6-chloro-3-((1-(2-(4-(5-cyclopropylpyrimidin-2-yl)piperidin-1-yl)-3,6-dimethyl-4-oxo-3,4-dihydroquinazolin-8-yl)ethyl)amino)-N-(methylsulfonyl) picolinamide]
12 | < 0.25 µM | 1 to 5 µM | – | – | Cc1cc([C@@H](C)Nc2ccc(Cl)nc2C(=O)NS(C)(=O)=O)c2nc(N3Cc4cnn(C(F)F)c4C3)n(C)c(=O)c2c1 [Compound 172, (R)-6-chloro-3-((1-(2-(1-(difluoromethyl)-4,6-dihydropyrrolo[3,4-c]pyrazol-5(1H)-yl)-3,6-dimethyl-4-oxo-3,4-dihydroquinazolin-8-yl)ethyl)amino)-N-(methylsulfonyl) picolinamide]
13 | – | – | < 0.25 µM | 1 to 5 µM | Cc1cc([C@@H](C)Nc2ccc(Cl)nc2C(=O)NS(C)(=O)=O)c2nc(N3C[C@@H]4[C@H](C3)[C@H]4c3nnc(C)o3)n(C)c(=O)c2c1 [Compound 654, 6-chloro-3-(((R)-1-(3,6-dimethyl-2-((1R,5S,6R)-6-(5-methyl-1,3,4-oxadiazol-2-yl)-3-azabicyclo[3.1.0]hexan-3-yl)-4-oxo-3,4-dihydroquinazolin-8-yl)ethyl)amino)-N-(methylsulfonyl) picolinamide]
14 | – | – | < 0.25 µM | 1 to 5 µM | Cc1cc([C@@H](C)Nc2ccc(Cl)nc2C(=O)NS(C)(=O)=O)c2nc(N3CCN(c4nccnc4C)CC3)n(C)c(=O)c2c1 [Compound 553, (R)-6-chloro-3-((1-(3,6-dimethyl-2-(4-(3-methylpyrazin-2-yl)piperazin-1-yl)-4-oxo-3,4-dihydroquinazolin-8-yl)ethyl)amino)-N-(methylsulfonyl) picolinamide]
15 | – | – | < 0.25 µM | ≥ 5 µM | Cc1cc([C@@H](C)Nc2ccc(Cl)nc2C(=O)NS(C)(=O)=O)c2nc(N3CCC(c4cc(C)no4)CC3)n(C)c(=O)c2c1 [Compound 539, (R)-6-chloro-3-((1-(3,6-dimethyl-2-(4-(3-methylisoxazol-5-yl)piperidin-1-yl)-4-oxo-3,4-dihydroquinazolin-8-yl)ethyl)amino)-N-(methylsulfonyl) picolinamide]
16 | – | – | < 0.25 µM | ≥ 5 µM | Cc1cc([C@@H](C)Nc2ccc(Cl)nc2C(=O)NS(C)(=O)=O)c2nc(N3CCC(c4nc(C)co4)CC3)n(C)c(=O)c2c1 [Compound 545, (R)-6-chloro-3-((1-(3,6-dimethyl-2-(4-(4-methyloxazol-2-yl)piperidin-1-yl)-4-oxo-3,4-dihydroquinazolin-8-yl)ethyl)amino)-N-(methylsulfonyl) picolinamide]
